Reference: patent US8354436B2 (4SC Discovery GmbH, priority 2011, dated 2013)
Where two headings read alike, the source gives them in different places.

How the values were obtained:
Assay type in all cases: cell-based
Details in all cases: 48 hours
IL-17FF = IL-17FF production by PHA-stimulated human PBMC (human IL-17F ELI-Pair)
Summary of the method: (§1)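 Healthy-donor PBMC (1×10^5 cells/well) were activated with 2 μg/ml PHA and cultured with test compounds for 48 hours; cytokines were then quantified in supernatants by the respective immunoassay. Screening used 10, 1, 0.1 and 0.01 μM; IC50 came from semilogarithmic compound titration.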

IFN-γ = IFN-γ production by PHA-stimulated human PBMC (OptEIA human IFN-g ELISA)
Summary of the method: as §1

[1] = tested on: PBMC from healthy human donors; experiment: T cell proliferation assay (PHA-stimulated human PBMC, BrdU ELISA)
Summary of the method: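 Healthy-donor PBMC isolated on Ficoll, seeded at 1×10⁵ cells/well in RPMI with 10% dialysed FCS, stimulated with 2 μg/ml PHA in presence of test compound. Proliferation read after 48 hours by BrdU-incorporation ELISA.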

[2] = PHA-stimulated human PBMC, column B, read-out: IC50 (IL-17FF)
[3] = PHA-stimulated human PBMC, column C, read-out: IC50 (IFNγ)
[4] = PHA-stimulated human PBMC, column D, read-out: IC50 (Tcell proliferation)
[5] = human PBMC, 2 μg/ml PHA, read-out: B: IC50 (IL-17FF)
[6] = human PBMC, 2 μg/ml PHA, read-out: C: IC50 (IFNγ)
[7] = human PBMC, 2 μg/ml PHA, read-out: D: IC50 (Tcell proliferation)

Compound `CNC(=O)c1c(-c2c(Cl)cccc2Cl)noc1-c1cnn(-c2cccc(F)c2)c1C(F)(F)F` [Example I-110, 3-(2,6-dichlorophenyl)-5-(1-(3-fluorophenyl)-5-(trifluoromethyl)-1H-pyrazol-4-yl)-N-methylisoxazole-4-carboxamide] has an IC50 (IL-17FF; [2]) of 10 to 100 nM, an IC50 (IFN-γ; [3]) of 10 to 100 nM and an IC50 [1, 4] of 10 to 100 nM.

In the case of `CNC(=O)c1c(-c2c(F)cccc2Cl)noc1-c1cnn(-c2ccc(F)cc2)c1C(F)(F)F` [Example I-55, 3-(2-chloro-6-fluorophenyl)-5-(1-(4-fluorophenyl)-5-(trifluoromethyl)-1H-pyrazol-4-yl)-N-methylisoxazole-4-carboxamide], the IC50 (IL-17FF; [2]) is reported as 100 to 1000 nM, the IC50 (IFN-γ; [3]) is reported as 100 to 1000 nM and the IC50 [1, 4] is reported as 100 to 1000 nM.

`Cc1nnc(-c2c(-c3c(F)cccc3Cl)noc2-c2cnn(-c3ccncc3)c2C(F)(F)F)s1` [Example B-22, 3-(2-chloro-6-fluorophenyl)-4-(5-methyl-1,3,4-thiadiazol-2-yl)-5-(1-(pyridin-4-yl)-5-(trifluoromethyl)-1H-pyrazol-4-yl)isoxazole] showed an IC50 (IL-17FF; [5]) of 100 to 1000 nM, an IC50 (IFN-γ; [6]) of 10 to 100 nM and an IC50 [1, 7] of 100 to 1000 nM.

`CCOC(=O)c1c(-c2ccncc2F)noc1-c1cnn(-c2cccc(Cl)c2)c1C(F)(F)F` [IB-4, ethyl 5-(1-(3-chlorophenyl)-5-(trifluoromethyl)-1H-pyrazol-4-yl)-3-(3-fluoropyridin-4-yl)isoxazole-4-carboxylate] was tested, and the IC50 (IL-17FF; [2]) was 100 to 1000 nM, the IC50 (IFN-γ; [3]) was 100 to 1000 nM and the IC50 [1, 4] was 1000 to 10000 nM.

In the case of `CCOC(=O)c1c(-c2onc(-c3c(F)cccc3Cl)c2C(=O)OC)cnn1-c1cccc(C#N)c1` [Example I-13, methyl 3-(2-chloro-6-fluorophenyl)-5-(1-(3-cyanophenyl)-5-(ethoxycarbonyl)-1H-pyrazol-4-yl)isoxazole-4-carboxylate], the IC50 (IL-17FF; [2]) is reported as 100 to 1000 nM, the IC50 (IFN-γ; [3]) is reported as 100 to 1000 nM and the IC50 [1, 4] is reported as 100 to 1000 nM.

`CCOC(=O)c1c(-c2c(F)cccc2Cl)noc1-c1cnn(-c2ccccn2)c1C(F)(F)F` [IB-84, ethyl 3-(2-chloro-6-fluorophenyl)-5-(1-(pyridin-2-yl)-5-(trifluoromethyl)-1H-pyrazol-4-yl)isoxazole-4-carboxylate] was tested, and the IC50 (IL-17FF; [2]) was less than 10 nM, the IC50 (IFN-γ; [3]) was less than 10 nM and the IC50 [1, 4] was less than 10 nM.

Compound `O=C(c1c(-c2c(F)cccc2Cl)noc1-c1cnn(-c2cccc(Cl)c2)c1C(F)(F)F)N1CCOCC1` [IB-35, (3-(2-chloro-6-fluorophenyl)-5-(1-(3-chlorophenyl)-5-(trifluoromethyl)-1H-pyrazol-4-yl)isoxazol-4-yl)(morpholino)methanone] has an IC50 (IL-17FF; [2]) of 100 to 1000 nM, an IC50 (IFN-γ; [3]) of 100 to 1000 nM and an IC50 [1, 4] of 1000 to 10000 nM.

In the case of `CC(C)OC(=O)c1c(-c2c(F)cccc2Cl)noc1-c1cnn(-c2ccccc2F)c1C(F)(F)F` [Example I-43, i-Propyl 3-(2-chloro-6-fluorophenyl)-5-[1-(2-fluorophenyl)-5-(trifluoromethyl)-1H-pyrazol-4-yl]isoxazole-4-carboxylate], the IC50 (IL-17FF; [2]) is reported as 100 to 1000 nM, the IC50 (IFN-γ; [3]) is reported as 10 to 100 nM and the IC50 [1, 4] is reported as 10 to 100 nM.

With `Fc1cccc(Cl)c1-c1noc(-c2cnn(-c3cccc(Cl)c3)c2C(F)(F)F)c1-c1nncs1` [Example B-8, 3-(2-chloro-6-fluorophenyl)-5-(1-(3-chlorophenyl)-5-(trifluoromethyl)-1H-pyrazol-4-yl)-4-(1,3,4-thiadiazol-2-yl)isoxazole] the IC50 (IL-17FF; [5]) was less than 10 nM, the IC50 (IFN-γ; [6]) was less than 10 nM and the IC50 [1, 7] was less than 10 nM.

`O=C(c1c(-c2c(F)cccc2Cl)noc1-c1cnn(-c2cccc(F)c2)c1C(F)(F)F)N1CCOCC1` [Example I-127, (3-(2-chloro-6-fluorophenyl)-5-(1-(3-fluorophenyl)-5-(trifluoromethyl)-1H-pyrazol-4-yl)isoxazol-4-yl)(morpholino)methanone] showed an IC50 (IL-17FF; [2]) of 100 to 1000 nM, an IC50 (IFN-γ; [3]) of 100 to 1000 nM and an IC50 [1, 4] of 1000 to 10000 nM.

Work on `Cc1csc(-c2c(-c3c(F)cccc3Cl)noc2-c2cnn(-c3cccc(Cl)c3)c2C(F)(F)F)n1` [Example 4] yielded an IC50 (IL-17FF; [5]) of less than 10 nM, an IC50 (IFN-γ; [6]) of less than 10 nM and an IC50 [1, 7] of less than 10 nM.

In the case of `CCOC(=O)c1c(-c2c(F)cccc2Cl)noc1-c1cnn(Cc2ccccc2F)c1C(F)(F)F` [IB-80, ethyl 3-(2-chloro-6-fluorophenyl)-5-(1-(2-fluorobenzyl)-5-(trifluoromethyl)-1H-pyrazol-4-yl)isoxazole-4-carboxylate], the IC50 (IL-17FF; [2]) is reported as 1000 to 10000 nM, the IC50 (IFN-γ; [3]) is reported as 1000 to 10000 nM and the IC50 [1, 4] is reported as 1000 to 10000 nM.

Work on `CCOC(=O)c1c(-c2ccncc2F)noc1-c1cnn(-c2ccccn2)c1C(F)(F)F` [IB-8] yielded an IC50 (IL-17FF; [2]) of 1000 to 10000 nM, an IC50 (IFN-γ; [3]) of 1000 to 10000 nM and an IC50 [1, 4] of 1000 to 10000 nM.

With `CCOC(=O)c1c(-c2ccc(Cl)cc2Cl)noc1-c1cnn(-c2cccc(Cl)c2)c1C(F)(F)F` [IB-46, ethyl 5-(1-(3-chlorophenyl)-5-(trifluoromethyl)-1H-pyrazol-4-yl)-3-(2,4-dichlorophenyl)-isoxazole-4-carboxylate] the IC50 (IL-17FF; [2]) was 100 to 1000 nM, the IC50 (IFN-γ; [3]) was 100 to 1000 nM and the IC50 [1, 4] was 100 to 1000 nM.

In the case of `CCOC(=O)c1c(-c2c(F)cccc2Cl)noc1-c1cnn(-c2cccnc2)c1C(F)(F)F` [IB-37, ethyl 3-(2-chloro-6-fluorophenyl)-5-(1-(pyridin-3-yl)-5-(trifluoromethyl)-1H-pyrazol-4-yl)-isoxazole-4-carboxylate], the IC50 (IL-17FF; [2]) is reported as less than 10 nM, the IC50 (IFN-γ; [3]) is reported as less than 10 nM and the IC50 [1, 4] is reported as less than 10 nM.

In the case of `NNC(=O)c1c(-c2c(F)cccc2Cl)noc1-c1cnn(-c2cccc(F)c2)c1C(F)(F)F` [Example I-133, 3-(2-chloro-6-fluorophenyl)-5-(1-(3-fluorophenyl)-5-(trifluoromethyl)-1H-pyrazol-4-yl)isoxazole-4-carbohydrazide], the IC50 (IL-17FF; [2]) is reported as 1000 to 10000 nM, the IC50 (IFN-γ; [3]) is reported as 1000 to 10000 nM and the IC50 [1, 4] is reported as 1000 to 10000 nM.

`Cc1nnc(-c2c(-c3c(F)cccc3Cl)noc2-c2cnn(-c3cccc(Cl)c3)c2C(F)(F)F)s1` [Example B-3, 3-(2-chloro-6-fluorophenyl)-5-(1-(3-chlorophenyl)-5-(trifluoromethyl)-1H-pyrazol-4-yl)-4-(5-methyl-1,3,4-thiadiazol-2-yl)isoxazole] gave an IC50 (IL-17FF; [5]) of less than 10 nM, an IC50 (IFN-γ; [6]) of less than 10 nM and an IC50 [1, 7] of less than 10 nM.

In the case of `O=C(c1c(-c2c(F)cccc2Cl)noc1-c1cnn(-c2ccccc2F)c1C(F)(F)F)N1CCOCC1` [Example I-16, (3-(2-chloro-6-fluorophenyl)-5-(1-(2-fluorophenyl)-5-(trifluoromethyl)-1H-pyrazol-4-yl)isoxazol-4-yl)(morpholino)methanone], the IC50 (IL-17FF; [2]) is reported as 100 to 1000 nM, the IC50 (IFN-γ; [3]) is reported as 100 to 1000 nM and the IC50 [1, 4] is reported as 1000 to 10000 nM.

`O=C(c1c(-c2c(F)cccc2Cl)noc1-c1cnn(-c2cccc(F)c2)c1C(F)(F)F)N1CCCO1` [Example I-118, (3-(2-chloro-6-fluorophenyl)-5-(1-(3-fluorophenyl)-5-(trifluoromethyl)-1H-pyrazol-4-yl)isoxazol-4-yl)(isoxazolidin-2-yl)methanone] showed an IC50 (IL-17FF; [2]) of 10 to 100 nM, an IC50 (IFN-γ; [3]) of 10 to 100 nM and an IC50 [1, 4] of 10 to 100 nM.

For `O=C(c1c(-c2ccccc2Cl)noc1-c1cnn(-c2cccc(Cl)c2)c1C(F)(F)F)N1CCCO1` [IB-62, (3-(2-chlorophenyl)-5-(1-(3-chlorophenyl)-5-(trifluoromethyl)-1H-pyrazol-4-yl)isoxazol-4-yl)(isoxazolidin-2-yl)methanone], the IC50 (IL-17FF; [2]) was 10 to 100 nM, the IC50 (IFN-γ; [3]) was 10 to 100 nM and the IC50 [1, 4] was 10 to 100 nM.

`CCOC(=O)c1c(-c2ccncc2F)noc1-c1cnn(-c2cccnc2)c1C(F)(F)F` [IB-17, ethyl 3-(3-fluoropyridin-4-yl)-5-(1-(pyridin-3-yl)-5-(trifluoromethyl)-1H-pyrazol-4-yl)isoxazole-4-carboxylate] was tested, and the IC50 (IL-17FF; [2]) was 100 to 1000 nM, the IC50 (IFN-γ; [3]) was 1000 to 10000 nM and the IC50 [1, 4] was 1000 to 10000 nM.

`CCOC(=O)c1c(-c2c(F)cccc2Cl)noc1-c1cnn(-c2cccc([N+](=O)[O-])c2)c1C(F)(F)F` [IB-90, ethyl 3-(2-chloro-6-fluorophenyl)-5-(1-(3-nitrophenyl)-5-(trifluoromethyl)-1H-pyrazol-4-yl)isoxazole-4-carboxylate] showed an IC50 (IL-17FF; [2]) of 10 to 100 nM, an IC50 (IFN-γ; [3]) of 10 to 100 nM and an IC50 [1, 4] of 10 to 100 nM.

In the case of `NC(=S)c1c(-c2c(F)cccc2Cl)noc1-c1cnn(-c2ccccc2F)c1C(F)(F)F` [IB-102, 3-(2-chloro-6-fluorophenyl)-5-(1-(2-fluorophenyl)-5-(trifluoromethyl)-1H-pyrazol-4-yl)isoxazole-4-carbothioamide], the IC50 (IL-17FF; [2]) is reported as 100 to 1000 nM, the IC50 (IFN-γ; [3]) is reported as 100 to 1000 nM and the IC50 [1, 4] is reported as 100 to 1000 nM.

Work on `CCOC(=O)c1c(-c2ccncc2F)noc1-c1cnn(-c2cccc(NC(C)=O)c2)c1C(F)(F)F` [IB-6, ethyl 5-(1-(3-acetamidophenyl)-5-(trifluoromethyl)-1H-pyrazol-4-yl)-3-(3-fluoropyridin-4-yl)isoxazole-4-carboxylate] yielded an IC50 (IL-17FF; [2]) of 10 to 100 nM, an IC50 (IFN-γ; [3]) of less than 10 nM and an IC50 [1, 4] of 100 to 1000 nM.

`Fc1cccc(Cl)c1-c1noc(-c2cnn(-c3ccncc3)c2C(F)(F)F)c1-c1cnco1` [Example B-33, 3-(2-chloro-6-fluorophenyl)-4-(oxazol-5-yl)-5-(1-(pyridin-4-yl)-5-(trifluoromethyl)-1H-pyrazol-4-yl)isoxazole] was tested, and the IC50 (IL-17FF; [5]) was 1000 to 10000 nM, the IC50 (IFN-γ; [6]) was 100 to 1000 nM and the IC50 [1, 7] was 1000 to 10000 nM.

`COC(=O)c1c(-c2ccccc2)noc1-c1cnn(-c2cccc(Cl)c2)c1C(F)(F)F` [IB-30, methyl 5-(1-(3-chlorophenyl)-5-(trifluoromethyl)-1H-pyrazol-4-yl)-3-phenylisoxazole-4-carboxylate] was tested, and the IC50 (IL-17FF; [2]) was 100 to 1000 nM, the IC50 (IFN-γ; [3]) was 100 to 1000 nM and the IC50 [1, 4] was 100 to 1000 nM.

`CCOC(=O)c1c(-c2c(F)cccc2Cl)noc1-c1cnn(-c2ccccc2Br)c1C(F)(F)F` [IB-72, ethyl 5-(1-(2-bromophenyl)-5-(trifluoromethyl)-1H-pyrazol-4-yl)-3-(2-chloro-6-fluorophenyl)isoxazole-4-carboxylate] showed an IC50 (IL-17FF; [2]) of 100 to 1000 nM, an IC50 (IFN-γ; [3]) of 100 to 1000 nM and an IC50 [1, 4] of 100 to 1000 nM.
